According to PubChem BioAssay AID248 (DTP/NCI, 2004):
Inconclusive results and toxic doses are left out.

System: L1210 leukemia ip in BDF1 mice, survival T/C
Experiment: NCI In Vivo Anticancer Drug Screen. Data for tumor model L1210 Leukemia (intraperitoneal) in B6D2F1 (BDF1) mice
Settings: endpoint: mean survival time, higher = longer survival
Summary of the method: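 Value reflects the ratio of survival in compound-treated mice to survival in vehicle-treated controls, with both groups carrying the same transplanted tumor.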

[1] = dose: 100.0 mg/kg/injection, schedule: Q04DX003 (ip), vehicle: saline with Tween-80
[2] = dose: 200.0 mg/kg/injection, schedule: Q04DX003 (ip), vehicle: saline with Tween-80
[3] = dose: 400.0 mg/kg/injection, schedule: Q04DX003 (ip), vehicle: saline with Tween-80

`C=CCNc1ccnc(SCc2ccccc2)n1` was tested, and the T/C (dose: 100.0 mg/kg/injection, schedule: Q01DX009 (ip), vehicle: gum acacia) was 93 % of control, the T/C (dose: 100.0 mg/kg/injection, schedule: Q04DX003 (ip), vehicle: gum acacia) was 97 % of control and the T/C (dose: 200.0 mg/kg/injection, schedule: Q01DX009 (ip), vehicle: gum acacia) was 110 % of control. For the same compound, the T/C (dose: 200.0 mg/kg/injection, schedule: Q04DX003 (ip), vehicle: gum acacia) was 97 % of control, the T/C (dose: 400.0 mg/kg/injection, schedule: Q01DX009 (ip), vehicle: gum acacia) was 97 % of control and the T/C (dose: 400.0 mg/kg/injection, schedule: Q04DX003 (ip), vehicle: gum acacia) was 92 % of control.

In the case of `CCOC(=O)c1ccc(NCCCc2c(C)nc(N)[nH]c2=O)cc1`, the T/C (dose: 75.0 mg/kg/injection, schedule: Q01DX001 (ip), vehicle: saline with Tween-80) is reported as 92 % of control, the T/C (dose: 150.0 mg/kg/injection, schedule: Q01DX001 (ip), vehicle: saline with Tween-80) is reported as 87 % of control and the T/C (dose: 300.0 mg/kg/injection, schedule: Q01DX001 (ip), vehicle: saline with Tween-80) is reported as 90 % of control.

With `O=C(O)c1c(O)cc(O)cc1O` the T/C [1] was 95 % of control and the T/C [2] was 95 % of control.

With `CCO/C=C1\SC(=S)N(c2ccccc2OC)C1=O` the T/C (dose: 100.0 mg/kg/injection, schedule: Q01DX009 (ip), vehicle: saline with Tween-80) was 102 % of control, the T/C (dose: 200.0 mg/kg/injection, schedule: Q01DX009 (ip), vehicle: saline with Tween-80) was 104 % of control and the T/C (dose: 400.0 mg/kg/injection, schedule: Q01DX009 (ip), vehicle: saline with Tween-80) was 106 % of control.

With `COC1OC(CO)C(O)C([N+](=O)[O-])C1O` (stereo unspecified) the T/C (dose: 100.0 mg/kg/injection, schedule: Q04DX003 (ip), vehicle: saline) was 98 % of control, the T/C (dose: 200.0 mg/kg/injection, schedule: Q04DX003 (ip), vehicle: saline) was 102 % of control and the T/C (dose: 400.0 mg/kg/injection, schedule: Q04DX003 (ip), vehicle: saline) was 105 % of control.

`N=C(N)N/N=C(/c1ccccc1)c1ccc(Oc2ccc(/C(=N/NC(=N)N)c3ccccc3)cc2)cc1` was tested, and the T/C (dose: 60.0 mg/kg/injection, schedule: Q01DX Z (oral), vehicle: methylcellulose (MC)) was 95 % of control, the T/C (dose: 240.0 mg/kg/injection, schedule: Q01DX Z (ip), vehicle: methylcellulose (MC)) was 101 % of control and the T/C (dose: 240.0 mg/kg/injection, schedule: Q01DX Z (oral), vehicle: methylcellulose (MC)) was 97 % of control. For the same compound, the T/C (dose: 360.0 mg/kg/injection, schedule: Q01DX Z (ip), vehicle: methylcellulose (MC)) was 102 % of control, the T/C (dose: 480.0 mg/kg/injection, schedule: Q01DX Z (ip), vehicle: methylcellulose (MC)) was 101 % of control and the T/C (dose: 480.0 mg/kg/injection, schedule: Q01DX Z (oral), vehicle: methylcellulose (MC)) was 111 % of control.

`CC12CCC(C)(O1)C1C(=O)OC(=O)C12` (stereo unspecified) was tested, and the T/C (dose: 100.0 mg/kg/injection, schedule: Q04DX003 (ip), vehicle: Klucel (hydroxypropylcellulose) (HPC)) was 96 % of control, the T/C (dose: 200.0 mg/kg/injection, schedule: Q04DX003 (ip), vehicle: Klucel (hydroxypropylcellulose) (HPC)) was 98 % of control and the T/C (dose: 400.0 mg/kg/injection, schedule: Q04DX003 (ip), vehicle: Klucel (hydroxypropylcellulose) (HPC)) was 98 % of control.

For `CC1(C)N=C(N)N=C(N)N1c1cccc(C(=O)CCl)c1`, the T/C (dose: 25.0 mg/kg/injection, schedule: Q01DX001 (ip), vehicle: saline with Tween-80) was 95 % of control, the T/C (dose: 50.0 mg/kg/injection, schedule: Q01DX001 (ip), vehicle: saline with Tween-80) was 103 % of control and the T/C (dose: 100.0 mg/kg/injection, schedule: Q01DX001 (ip), vehicle: saline with Tween-80) was 101 % of control.

In the case of `CCCC(C)C(C#N)C(=O)OCC` (stereo unspecified), the T/C [1] is reported as 106 % of control, the T/C [2] is reported as 101 % of control and the T/C [3] is reported as 105 % of control.

`C=CCN(CC=C)P(=O)(N1CC1C)N1CC1C` (stereo unspecified) was tested, and the T/C (dose: 1.0 mg/kg/injection, schedule: Q01DX009 (ip), vehicle: saline) was 124 % of control and the T/C (dose: 3.0 mg/kg/injection, schedule: Q01DX009 (ip), vehicle: saline) was 172 % of control.

For `OC1CC2C=C(c3ccccc3)C1C2` (stereo unspecified), the T/C [1] was 96 % of control, the T/C [2] was 93 % of control and the T/C [3] was 88 % of control.

In the case of `c1ccc(C2=NC(c3ccccc3)NC2c2ccccc2)cc1` (stereo unspecified), the T/C (dose: 25.0 mg/kg/injection, schedule: Q01DX001 (ip), vehicle: Klucel (hydroxypropylcellulose) (HPC)) is reported as 95 % of control and the T/C (dose: 50.0 mg/kg/injection, schedule: Q01DX001 (ip), vehicle: Klucel (hydroxypropylcellulose) (HPC)) is reported as 98 % of control.

For `C/C(=N\N=C(N)N)c1cccs1`, the T/C (dose: 7.0 mg/kg/injection, schedule: Q01DX Z (oral), vehicle: carboxymethylcellulose (CMC)) was 101 % of control and the T/C (dose: 15.0 mg/kg/injection, schedule: Q01DX Z (oral), vehicle: carboxymethylcellulose (CMC)) was 91 % of control.
